Test system: endospores from Clostridium sporogenes ATCC 7955
Test: Sporicidal activity, quantitative suspension test EN 13704:2002 (Example 5)
Format: cell-based
Conditions: 60 minutes contact, 20° C.; for Test of LAE sporicidal activity (Na), surviving spores count: water as interfering substance, N 1.3 × 10^6 cfu/mL
Protocol: The determination of the sporicidal activity of LAE has been carried out according to the European standard EN 13704:2002 Chemical disinfectant—Quantitative suspension test for the evaluation of sporicidal activity of chemical disinfectants used in food, industrial, domestic and institutional areas—Test method and requirements”.
A test suspension containing endospores from Clostridium sporogenes ATCC 7955 was prepared from a culture grown on a nutrient agar, to which additional sporulation enhancement ingredients were added. Plates were harvested with sterile water and endospores were purified by repeated centrifugations and resuspensions in water.
Neutralizer. The neutralizer mixture consisted of 30 g/L polysorbate 80 in water. The solution was intended to neutralize any chemicals so that these would not affect subsequent growth of the bacteria.
The sporicidal activity of a given product is defined by its capacity to reduce at least by 10^3 the amount of Clostridium sporogenes bacterial spores in suspension, in the conditions established in the method.
The product was in contact with a suspension of bacterial spores during an established period of time of 60 minutes. An interfering substance can be added to the suspension, in this case water. Next, the effect of the product is neutralized by adding a neutralizer previously chosen, preceding to the surviving spores count.
• 1. Spore suspension obtained from a spored-form culture of Clostridium sporogenes. • 2. Count of the spore suspension of Clostridium sporogenes. • 3. The possible toxic effect of the neutralizer on the spores in the absence of the product is valued. • 4. […] Results: Results are expressed as the reduction of viability of the spore suspension in regards to: […]
Sporicidal activity is calculated following the criteria of the Standard EN 13704: 2002 R=N×0.1/Na N is cfu/mL of the spore suspension. […] The calculated reduction (R) of a solution of: • 13 μg/mL of LAE is R<10^3 cfu/mL • 26 μg/mL of LAE is R<10^3 cfu/mL • 51 μg/mL of LAE is R>10^3 cfu/mL • 64 μg/mL of LAE is R>10^3 cfu/mL

CCCCCCCCCCCC(=O)N[C@@H](CCCN=C(N)N)C(=O)OCC.Cl [LAE, ethyl ester of the lauramide of the arginine monohydrochloride]
concentration displaying sporicidal activity (reduction equal or above 10^3) (EN 13704:2002): ≥ 51 μg/mL | Test of LAE sporicidal activity (Na), surviving spores count (LAE 13 μg/mL): 3.3 × 10^3 cfu/mL | Test of LAE sporicidal activity (Na), surviving spores count (LAE 26 μg/mL): 2.3 × 10^3 cfu/mL
